Data on 15 compounds can be found in patent US20230192661A1, “1, 4, 5, 6-TETRAHYDROPYRIMIDINE-2-AMINE DERIVATIVE” (UBE Corporation, priority 2020, published 2023).

The subject of assay [1] is TGF-β activation (phosphorylated SMAD3). Kind of assay: TGF-β activation inhibition test (inhibition of SMAD3 phosphorylation in TFK-1 cells). It is filed as cell-based. Conditions: 48 h, fibronectin-coated plate, cultured 2 days, read-out: IC50 (rate of inhibition of phosphorylated SMAD3). On the procedure:
In Test Example 3, the inhibition of TGF-β activation by a compound was detected with the inhibition of SMAD3 phosphorylation as an index. In Test Example 3, the same reagents as in Test Example 1 were used unless otherwise specified.
Human fibronectin was prepared at 14 μg/mL with PBS and then dispensed at 50 μL/well to a 96-well plate. The plate was left standing at room temperature for 1 hour or longer, followed by the removal of the fibronectin solution. The plate was washed with PBS and used as a coated plate.
A test compound dissolved in DMSO was added to RPMI medium 1640 (manufactured by Thermo Fisher Scientific, Inc., 11875) containing 1% FBS and 1% penicillin/streptomycin/amphotericin B to prepare a medium containing the test compound having a concentration of two times the final concentration. This medium was added at 100 μL/well to the coated plate. TFK-1 cells (Cell Resource Center for Biomedical Research, Institute of Development, Aging and Cancer, Tohoku University) cultured in RPMI medium 1640 containing 10% FBS and 1% penicillin/streptomycin/amphotericin B were suspended in RPMI medium 1640 containing 1% FBS and 1% penicillin/streptomycin/amphotericin B to prepare a cell suspension of 1×10^6 cells/mL. The prepared cell suspension was further added at 100 μL/well and cultured for 2 days in a 5% CO2 incubator (37° C.).
Phosphorylated SMAD3 in the cells thus cultured for 2 days was measured using Phospho-SMAD3 (Ser423/425) cellular kit (manufactured by cisbio, 63ADK025), and a DeltaF value was calculated according to the calculation expression of the kit. Inhibition when 10 μM LY364947 (FUJIFILM Wako Pure Chemical Corp., 123-05981) was added instead of the test compound was defined as 100% inhibition, and inhibition when DMSO was added instead was defined as 0% inhibition. The rate of inhibition of phosphorylated SMAD3 by the test compound was calculated according to the following expression.
Rate of inhibition of phosphorylated SMAD3 (%)=[1−{(DeltaF value in the case of adding the test compound)−(DeltaF value in the case of adding 10 μM LY364947)}/{(DeltaF value in the case of adding DMSO)−(DeltaF value in the case of adding 10 μM LY364947)}]×100
An IC50 value was calculated from the rate of inhibition of phosphorylated SMAD3 by the test compound. A: IC50<10 nM, B: 10 nM≤IC50<50 nM, C: 50 nM≤IC50<100 nM, or D: IC50≥100 nM.

Assay [2] concerns the target T1, αvβ6 (Homo sapiens, UniProt P06756+P18564).
T1 construct: endogenous in cells; host or cells: HT-29 cells
The assay is described as follows: αvβ6 cell adhesion inhibition test (HT-29 cells on recombinant human LAP protein). The format is cell-based. Conditions: recombinant human LAP coating, 200 μM MnCl2, 1 hour, read-out: IC50 (rate of inhibition of cell adhesion, αvβ6). The method, then:
Test Example 2 was performed by partially modifying the method of Henderson et al. (Nat Med., 19 (12), 1617-24, 2013). In Test Example 2, the same reagents as in Test Example 1 were used unless otherwise specified.
Recombinant human LAP protein (manufactured by R&D Systems, Inc., 246-LP-025) was prepared at […] with PBS, dispensed at 100 μL/well to a 96-well plate, and left standing overnight. The plate was washed with HBSS, then subjected to blocking treatment with DMEM containing 1% BSA, and used as a coated plate in the adhesion test.
HT-29 cells cultured in McCoy's 5A medium (manufactured by Thermo Fisher Scientific, Inc., 16600) containing 10% FBS and 1% penicillin/streptomycin/amphotericin B were recovered and suspended in DMEM containing 0.1% BSA and 200 μM MnCl2 to prepare a cell suspension. A test compound was added thereto.
The cell suspension of 5×10^5 cells/mL containing the test compound was added at 100 μL/well to the coated plate and left standing for 1 hour in a 5% CO2 incubator (37° C.). One hour later, the supernatant was removed, and the plate was washed with HBSS containing 200 μM MnCl2. The cells that adhered to each well in the plate were stained with crystal violet, and the cells were lysed, followed by absorbance measurement. Inhibition without substrate coating was defined as 100% inhibition, and inhibition when DMSO was added instead of the test compound was defined as 0% inhibition. The rate of inhibition of cell adhesion by the test compound was calculated according to the following expression.
Rate of inhibition of cell adhesion (%)=[1−{(Absorbance in the case of adding the test compound)−(Absorbance without substrate coating)}/{(Absorbance in the case of adding DMS)−(Absorbance without substrate coating)}]×100
An IC50 value was calculated from the rate of inhibition of cell adhesion by the test compound. A: IC50<3 nM, B: 3 nM≤IC50<10 nM, C: 10 nM≤IC50<30 nM, D: 30 nM≤IC50<100 nM, or E: IC50≥100 nM.

What is called IC50 is the concentration that gives 50% inhibition.

T1 sequence (P06756 31-889 limits assumed): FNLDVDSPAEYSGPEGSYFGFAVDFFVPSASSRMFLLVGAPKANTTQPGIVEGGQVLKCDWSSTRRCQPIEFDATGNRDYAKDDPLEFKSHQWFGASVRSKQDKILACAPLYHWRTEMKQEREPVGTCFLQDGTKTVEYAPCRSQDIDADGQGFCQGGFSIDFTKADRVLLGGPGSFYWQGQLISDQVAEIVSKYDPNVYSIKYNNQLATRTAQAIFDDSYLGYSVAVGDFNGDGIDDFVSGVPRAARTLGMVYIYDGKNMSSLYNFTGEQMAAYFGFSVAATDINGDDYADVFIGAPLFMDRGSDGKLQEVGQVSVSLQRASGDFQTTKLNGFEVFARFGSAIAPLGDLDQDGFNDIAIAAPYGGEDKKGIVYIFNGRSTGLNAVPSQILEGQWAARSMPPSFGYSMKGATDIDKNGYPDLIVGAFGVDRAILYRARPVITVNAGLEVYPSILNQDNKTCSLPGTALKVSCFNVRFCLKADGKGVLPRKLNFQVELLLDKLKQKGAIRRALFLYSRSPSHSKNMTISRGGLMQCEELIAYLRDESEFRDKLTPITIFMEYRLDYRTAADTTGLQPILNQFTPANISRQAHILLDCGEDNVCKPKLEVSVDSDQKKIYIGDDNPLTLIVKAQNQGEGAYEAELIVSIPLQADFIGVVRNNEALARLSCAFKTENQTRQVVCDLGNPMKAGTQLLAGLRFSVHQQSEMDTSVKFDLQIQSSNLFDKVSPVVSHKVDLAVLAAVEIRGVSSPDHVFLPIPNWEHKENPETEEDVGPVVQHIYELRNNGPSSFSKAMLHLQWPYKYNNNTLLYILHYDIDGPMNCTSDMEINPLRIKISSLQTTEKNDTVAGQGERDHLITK
T1 sequence (P06756 891-1048 limits assumed): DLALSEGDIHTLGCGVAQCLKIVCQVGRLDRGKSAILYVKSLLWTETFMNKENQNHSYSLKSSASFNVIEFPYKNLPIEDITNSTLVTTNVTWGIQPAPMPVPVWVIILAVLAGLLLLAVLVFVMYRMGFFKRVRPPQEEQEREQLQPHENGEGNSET
T1 sequence (P18564 22-788): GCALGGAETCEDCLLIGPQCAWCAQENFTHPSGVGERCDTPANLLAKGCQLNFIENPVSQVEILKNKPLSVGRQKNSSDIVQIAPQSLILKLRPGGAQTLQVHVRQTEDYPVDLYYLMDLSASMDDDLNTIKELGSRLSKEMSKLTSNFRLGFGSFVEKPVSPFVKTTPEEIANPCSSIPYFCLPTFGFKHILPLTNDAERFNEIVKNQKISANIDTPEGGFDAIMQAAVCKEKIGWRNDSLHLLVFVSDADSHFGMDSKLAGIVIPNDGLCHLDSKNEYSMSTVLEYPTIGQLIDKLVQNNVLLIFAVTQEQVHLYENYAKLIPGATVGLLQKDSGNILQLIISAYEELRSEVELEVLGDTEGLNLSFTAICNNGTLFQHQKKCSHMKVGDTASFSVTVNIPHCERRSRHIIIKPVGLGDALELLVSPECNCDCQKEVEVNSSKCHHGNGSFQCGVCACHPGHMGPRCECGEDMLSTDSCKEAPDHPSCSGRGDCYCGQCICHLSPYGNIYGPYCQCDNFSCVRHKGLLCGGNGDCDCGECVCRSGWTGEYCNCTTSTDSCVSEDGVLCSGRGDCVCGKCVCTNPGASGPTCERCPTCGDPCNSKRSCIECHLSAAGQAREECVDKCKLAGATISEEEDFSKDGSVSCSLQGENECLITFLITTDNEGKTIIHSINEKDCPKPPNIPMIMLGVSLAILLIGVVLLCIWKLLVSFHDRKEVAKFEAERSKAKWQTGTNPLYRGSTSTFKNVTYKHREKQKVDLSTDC

`O=C(O)C[C@H](NC(=O)CNC(=O)c1cc(NC2=NCC(F)CN2)c2cn[nH]c2c1)c1cc(Cl)cc(Cl)c1` (stereo partly drawn) [Example 17-(b), (3S)-3-(3,5-dichlorophenyl)-3-(2-(4-((5-fluoro-1,4,5,6-tetrahydropyrimidin-2-yl)amino)-1H-indazole-6-carboxamido)acetamido)propanoic acid]: the values for the IC50 in assay [1] and in assay [2] were less than 10 nM and 3 to 10 nM, respectively.
For `O=C(O)C[C@H](NC(=O)CNC(=O)c1cc(NC2=NCC(F)CN2)c2c(F)n[nH]c2c1)c1cc(Cl)cc(C(F)(F)F)c1` (stereo partly drawn) [Example 48-(b), (3S)-3-(3-chloro-5-(trifluoromethyl)phenyl)-3-(2-(3-fluoro-4-((5-fluoro-1,4,5,6-tetrahydropyrimidin-2-yl)amino)-1H-indazole-6-carboxamido)acetamido) propanoic acid], the results for the half-inhibitory concentration (IC50) in assay [1] and in assay [2] were less than 10 nM and less than 3 nM, respectively.
Consider `O=C(O)C[C@H](NC(=O)CNC(=O)c1cc(NC2=NCC(F)CN2)c2cn[nH]c2c1)c1cccc(Br)c1` (stereo partly drawn) [Example 42-(b), (3S)-3-(3-bromophenyl)-3-(2-(4-((5-fluoro-1,4,5,6-tetrahydropyrimidin-2-yl)amino)-1H-indazole-6-carboxamido)acetamido)propanoic acid], for which the IC50 in assay [1] is 10 to 50 nM; in assay [2] it was less than 3 nM.
For `O=C(O)C[C@H](NC(=O)CNC(=O)c1cc(NC2=NCC(F)CN2)c2cn[nH]c2c1)c1cc(Cl)ccc1F` (stereo partly drawn) [Example 22-(b), (3S)-3-(5-chloro-2-fluorophenyl)-3-(2-(4-((5-fluoro-1,4,5,6-tetrahydropyrimidin-2-yl)amino)-1H-indazole-6-carboxamido)acetamido)propanoic acid] the same measures were 10 to 50 nM and 3 to 10 nM.
The like results for `O=C(O)C[C@H](NC(=O)CNC(=O)c1cc(NC2=NCC(F)CN2)c2cn[nH]c2c1)c1cccc(C(F)F)c1` (stereo partly drawn) [Example 38-(b), (3S)-3-(3-(difluoromethyl)phenyl)-3-(2-(4-((5-fluoro-1,4,5,6-tetrahydropyrimidin-2-yl)amino)-1H-indazole-6-carboxamido)acetamido)propanoic acid] were, in that order, 50 to 100 nM and less than 3 nM.
`O=C(O)C[C@H](NC(=O)CNC(=O)c1cc(NC2=NCC(F)CN2)c2cn[nH]c2c1)c1cccc(OC(F)(F)F)c1` (stereo partly drawn) [Example 36-(b), (3S)-3-(2-(4-((5-fluoro-1,4,5,6-tetrahydropyrimidin-2-yl)amino)-1H-indazole-6-carboxamido)acetamido)-3-(3-(trifluoromethoxy)phenyl)propanoic acid]: the half-maximal inhibitory concentration (IC50) is 10 to 50 nM in assay [1] and less than 3 nM in assay [2].
For the compound `O=C(O)C[C@H](NC(=O)CNC(=O)c1cc(NC2=NCC(F)CN2)c2cn[nH]c2c1)c1cc(OC(F)F)cc(OC(F)F)c1` (stereo partly drawn) [Example 30-(b), (3S)-3-(3,5-bis(difluoromethoxy)phenyl)-3-(2-(4-((5-fluoro-1,4,5,6-tetrahydropyrimidin-2-yl)amino)-1H-indazole-6-carboxamido)acetamido)propanoic acid], the IC50 in assay [1] is less than 10 nM; in assay [2], less than 3 nM.
The like results for `O=C(O)C[C@H](NC(=O)CNC(=O)c1cc(NC2=NCC(O)CN2)c2cn[nH]c2c1)c1cc(Cl)cc(C(F)(F)F)c1` (stereo partly drawn) [Example 50-(b), (3S)-3-(3-chloro-5-(trifluoromethyl)phenyl)-3-(2-(4-((5-hydroxy-1,4,5,6-tetrahydropyrimidin-2-yl)amino)-1H-indazole-6-carboxamido)acetamido)propanoic acid] were, in that order, no less than 100 nM and 10 to 30 nM.
The like results for `O=C(O)C[C@H](NC(=O)CNC(=O)c1cc(NC2=NCC(F)CN2)cc2[nH]ncc12)c1cc(Cl)cc(C(F)(F)F)c1` (stereo partly drawn) [Example 52-(b), (3S)-3-(3-chloro-5-(trifluoromethyl)phenyl)-3-(2-(6-((5-fluoro-1,4,5,6-tetrahydropyrimidin-2-yl)amino)-1H-indazole-4-carboxamido)acetamido)propanoic acid] were, in that order, less than 10 nM and less than 3 nM.
As to `O=C(O)C[C@H](NC(=O)CNC(=O)c1cc(NC2=NCC(F)CN2)c2cn[nH]c2c1)c1ccc(F)c(C(F)(F)F)c1` (stereo partly drawn) [Example 13-(b), (3S)-3-(2-(4-((5-fluoro-1,4,5,6-tetrahydropyrimidin-2-yl)amino)-1H-indazole-6-carboxamido)acetamido)-3-(4-fluoro-3-(trifluoromethyl)phenyl)propanoic acid], the 50% inhibitory concentration (IC50) in assay [1] is 10 to 50 nM; in assay [2] it was less than 3 nM.
On to `O=C(O)C[C@H](NC(=O)CNC(=O)c1cc(NC2=NCC(F)CN2)c2cn[nH]c2c1)c1cc(Cl)cc(C(F)(F)F)c1` (stereo partly drawn) [Example 1-(b), (3S)-3-(3-chloro-5-(trifluoromethyl)phenyl)-3-(2-(4-((5-fluoro-1,4,5,6-tetrahydropyrimidin-2-yl)amino)-1H-indazole-6-carboxamido)acetamido)propanoic acid], for which the results for the IC50 in assay [1] and in assay [2] were less than 10 nM and less than 3 nM, respectively.
As for `O=C(O)C[C@H](NC(=O)CNC(=O)c1cc(NC2=NCC(F)CN2)c2cn[nH]c2c1)c1cc(OC(F)F)ccc1F` (stereo partly drawn) [Example 28-(b), (3S)-3-(5-(difluoromethoxy)-2-fluorophenyl)-3-(2-(4-((5-fluoro-1,4,5,6-tetrahydropyrimidin-2-yl)amino)-1H-indazole-6-carboxamido)acetamido)propanoic acid], the IC50 in assay [1] was 10 to 50 nM; in assay [2] it was less than 3 nM.
For `O=C(O)C[C@H](NC(=O)CNC(=O)c1cc(NC2=NCC(F)CN2)c2cn[nH]c2c1)c1cc(C(F)(F)F)ccc1Cl` (stereo partly drawn) [Example 12-(b), (3S)-3-(2-chloro-5-(trifluoromethyl)phenyl)-3-(2-(4-((5-fluoro-1,4,5,6-tetrahydropyrimidin-2-yl)amino)-1H-indazole-6-carboxamido)acetamido)propanoic acid], the half-maximal inhibitory concentration (IC50) is no less than 100 nM in assay [1] and 3 to 10 nM in assay [2].
As to `Cc1cc([C@H](CC(=O)O)NC(=O)CNC(=O)c2cc(NC3=NCC(F)CN3)c3cn[nH]c3c2)cc(C(F)(F)F)c1` (stereo partly drawn) [Example 4-(b), (3S)-3-(2-(4-((5-fluoro-1,4,5,6-tetrahydropyrimidin-2-yl)amino)-1H-indazole-6-carboxamido)acetamido)-3-(3-methyl-5-(trifluoromethyl)phenyl)propanoic acid], the concentration for half-maximal inhibition (IC50) is less than 10 nM in assay [1] and less than 3 nM in assay [2].
For `O=C(O)C[C@H](NC(=O)CNC(=O)c1cc(NC2=NCC(F)CN2)c2cn[nH]c2c1)c1cc(-n2cccn2)cc(C(F)(F)F)c1` (stereo partly drawn) [Example 8-(b), (3S)-3-(3-(1H-pyrazol-1-yl)-5-(trifluoromethyl)phenyl)-3-(2-(4-((5-fluoro-1,4,5,6-tetrahydropyrimidin-2-yl)amino)-1H-indazole-6-carboxamido)acetamido)propanoic acid], the 50% inhibitory concentration (IC50) was less than 10 nM in assay [1] and less than 3 nM in assay [2].
